{
  "source": "patent US20220128542A1",
  "about": "“TREATMENT EFFICIENCY EVALUATION” (TX MEDIC AB, priority 2019, published 2022)",
  "tested_on": "Human umbilical vein endothelial cells (HUVECs)",
  "assay": "Gene expression array and pathway/upstream regulator analysis in HUVECs (Example 2)",
  "type": "cell-based",
  "settings": "for differentially expressed genes: HUVEC",
  "protocol": "For each cell line, n=8×25 cm^2 culture flasks were set up. Two flasks were harvested for each cell type on the day of treatment (24 hours after seeding). This represents the Day0 time point. From the remaining flasks, three flasks were treated with Control Medium and three were treated with Culture Medium (CM) containing LMW-DS to give a final concentration of 0.01 mg/ml. Cells from the treated flasks were collected after 48 hours. Therefore the collected data represent (a) untreated cells (Day0 Controls and Day2 Controls) and (b) cells treated with LMW-DS for 48 hours (Day2 LMW-DS treated).\n25 cm^2 flasks were coated by adding 2 ml per flask of a solution of 50 μg/ml poly-d-lysine in Hank's balanced salt solution (HBSS) and incubating overnight at 37° C. in the dark. Flasks were washed with cell culture water and air-dried for 30 min in the dark. Flasks were coated by adding 1 ml per flask of a solution of 25 μg/ml laminin in phosphate-buffered saline (PBS) and incubating for 2 hour at 37° C. in the dark. The laminin flasks were washed with PBS three times before plating cells.\nMedium 200+Large Vessel Endothelial Supplement (M200+LVES) additive (1:50) was prepared and pre-warmed to 37° C. Cells were thawed in a 37° C. water bath for no longer than 2 min and gently transferred into a 50 ml tube containing 20 ml Dulbecco's Modified Eagle Medium, Nutrient Mixture F-12 (DMEM-F12). The cell suspension was mixed by inverting the tube carefully twice. Cells were spun at 400×g for 10 minutes. Supernatant removed and cells were re-suspended in 10 ml of culture media (M200+LVES additive).\nCells were counted with the Cellometer. 1,000,000 cells/flask were seeded in 25 cm^2 flasks (n=8) and medium was topped up to a total of 5 ml per flask. Cells were incubated at 37° C. with 5% CO2. Cells were allowed to settle for 24 hours before LMW-DS treatment.\nA fresh 100× LMW-DS stock (1.0 mg/ml) was prepared in sterile DMEM-F12. The concentrated drug stock was sterile filtered and added to the respective culture media (19.6 ml CM and 0.4 ml LMW-DS stock solution). The Control was made using 19.6 ml CM and 0.4 ml of DMEM-F12. LMW-DS and CM were added to the respective flasks (5 ml each) to reach the 0.01 mg/ml concentration of LMW-DS in each dish with a total of 10 ml CM each.\nCM was aspirated into a clean and labelled 15 ml Falcon tube. The flasks (without culture medium) were placed into the −80° C. freezer for 30 minutes. The CM in the Falcon tubes was spun at 3000×g for 5 minutes. Supernatant was removed and the small pellet was re-suspended in 2.5 ml Trizol:Water (4:1) solution at room temperature (RT, ˜22° C.).\nThe frozen flasks were removed one-by one from the freezer and the Trizol-Water from the appropriate tubes was moved to the flask. Flasks were left at RT for 5 minutes before the content was aspirated back into the 15 ml Falcon tube (after washing the bottom of the flask with the solution thoroughly). The flasks were inspected under the microscope to ensure full removal of cells. The collected lysates in the 15 ml Falcon tubes were placed into the −80° C. freezer.\nFalcon tubes containing the homogenates were removed from the freezer and stored for 5 minutes at RT to permit the complete dissociation of nucleoprotein complexes.\nTwo aliquots of 1 ml lysate were removed from each sample and 200 μl of chloroform was added to each (0.2 ml of chloroform per 1 ml of TRIzol Reagent used during the cell lysis step) and the tube was shaken vigorously. Samples were stored at RT for 2-3 minutes and subsequently centrifuged at 12,000×g for 15 minutes at 4° C.\nThe mixture separated into three layers: a lower red phenol-chloroform phase, an interphase and a colorless upper aqueous phase. The RNA remained in the top aqueous phase, DNA in the white middle (interphase) phase and protein in the pink bottom (organic) phase. The top ¾ of the aqueous phase was transferred to a new clean Eppendorf tube. […]",
  "data": [
    {"substance": "sodium salt of dextran sulfate [LMW-DS]", "values": [
      {"measurement": "differentially expressed genes", "setting": "D0 control vs D2 LMW-DS treated, 0.01 mg/ml", "result": 1779, "unit": "genes"},
      {"measurement": "differentially expressed genes", "setting": "D2 control vs D2 LMW-DS treated, 0.01 mg/ml", "result": 76, "unit": "genes"},
      {"measurement": "cell adhesion", "setting": "HUVECs", "result": "not affected"},
      {"measurement": "number of genes: no effect / abolished nutrient effect", "setting": "HUVECs, 0.01 mg/ml, 48 hours", "result": 67},
      {"measurement": "number of genes: no effect / total", "setting": "HUVECs, 0.01 mg/ml, 48 hours", "result": 67},
      {"measurement": "number of genes: significant downregulation / abolished nutrient effect", "setting": "HUVECs, 0.01 mg/ml, 48 hours", "result": 4},
      {"measurement": "number of genes: significant downregulation / enhanced response to nutrients", "setting": "HUVECs, 0.01 mg/ml, 48 hours", "result": 120},
      {"measurement": "number of genes: significant downregulation / not different from control", "setting": "HUVECs, 0.01 mg/ml, 48 hours", "result": 167},
      {"measurement": "number of genes: significant downregulation / total", "setting": "HUVECs, 0.01 mg/ml, 48 hours", "result": 291},
      {"measurement": "number of genes: significant upregulation / abolished nutrient effect", "setting": "HUVECs, 0.01 mg/ml, 48 hours", "result": 11},
      {"measurement": "number of genes: significant upregulation / enhanced response to nutrients", "setting": "HUVECs, 0.01 mg/ml, 48 hours", "result": 229},
      {"measurement": "number of genes: significant upregulation / not different from control", "setting": "HUVECs, 0.01 mg/ml, 48 hours", "result": 1326},
      {"measurement": "number of genes: significant upregulation / total", "setting": "HUVECs, 0.01 mg/ml, 48 hours", "result": 1566},
      {"measurement": "number of genes: total / abolished nutrient effect", "setting": "HUVECs, 0.01 mg/ml, 48 hours", "result": 82},
      {"measurement": "number of genes: total / enhanced response to nutrients", "setting": "HUVECs, 0.01 mg/ml, 48 hours", "result": 349},
      {"measurement": "number of genes: total / not different from control", "setting": "HUVECs, 0.01 mg/ml, 48 hours", "result": 1493},
      {"measurement": "number of genes: total / total", "setting": "HUVECs, 0.01 mg/ml, 48 hours", "result": 1924}
    ]}
  ]
}
